{"source": "paper PMC11995503", "about": "(Molecular Cancer, 2025)", "key": {"[1]": {"settings": "life-threatening side effects; cited from earlier work"}, "[2]": {"system": "KDR/VEGFR2", "experiment": "KDR inhibition", "format": "biochemical"}, "[3]": {"system": "BP-CML", "settings": "BP-CML cohort, cited from earlier work"}}, "data": [{"compound": "Cc1ccc(C(=O)Nc2ccc(CN3CCN(C)CC3)c(C(F)(F)F)c2)cc1C#Cc1cnc2cccnn12", "note": "[Ponatinib]", "values": [{"measurement": "arterial obstruction", "setting": "[1]", "result": 33, "unit": "%"}, {"measurement": "heart failure", "setting": "[1]", "result": 9, "unit": "%"}, {"measurement": "thromboembolism", "setting": "[1]", "result": 6, "unit": "%"}, {"measurement": "KDR inhibition potency relative to KF1601", "setting": "[2]", "result": "tenfold greater"}, {"measurement": "patients achieving a major cytological response", "setting": "[3]; within six months", "result": 23, "unit": "%"}, {"measurement": "median overall survival", "setting": "[3]", "result": "seven"}]}]}
